From publication PMC11333205, “Pyridylpiperazine-based carbodithioates as urease inhibitors: synthesis and biological evaluation” (Frontiers in Chemistry, 2024)
Like-named read-outs stand apart in the source and are kept apart here.

Experiments:
[1] = target: T1, urease (Canavalia ensiformis, UniProt P07374); assay: biochemical; format: biochemical
Method: The inhibitory potential of the compounds was assessed using a slightly modified indophenol method ([Hina et al., 2023]). In 96-well plates, a mixture consisting of 50 µL urease, 30 µL buffer solution (phosphate buffer, sodium salicylate, sodium nitroprusside, and EDTA, pH 8.0), 10 µL urea substrate (100 mM), and 10 µL of the test compound (1 mM) was subjected to pre-incubation for 10 min at room temperature. Subsequently, an alkali reagent (70 µL) was promptly introduced into each well. Then, 30 min later, the absorbance at 630 nm for all samples was measured using a BioTek ELx800 instrument from BioTek Instruments, Inc., United States. The data were collected for all experiments performed in triplicate, and the percentage of inhibitory activities was assessed utilizing the following formula: Percentage of inhibition=100 – Absorbance of compound/Absorbance of control × 100.

[2] = target: T1, urease; assay: Kinetic study (Lineweaver–Burk / Michaelis–Menten) of urease inhibition; format: biochemical; settings: Lineweaver–Burk plots; 5j at 0, 2.55, 5.11, 7.65 μM
From the text: By using Lineweaver–Burk graphs, we determined the mechanism of action of the leading compound 5j against urease. We evaluated the effect of the inhibitor on K m and V max using reciprocal 1/S and 1/V of the product concentration and calculated the inhibition type. The slope K m /V max of each line was schemed against different concentrations of the substrate and inhibitor. In kinetic studies of the potent compound, different concentrations of the compound and substrate were used. Different concentrations of 1 mM 5j were 0, 2.55, 5.11, and 7.65 μM, and different concentrations of the substrate were 0, 25, 50, 100, and 150 mM.
The type of inhibitory action was determined by using […] different concentrations of the substrate (0, 2.5, 5, 10, and 15 mM) in the absence and presence of different concentrations of inhibitor 5j (0, 2.55, 5.11, and 7.65 μM).

[3] = target: T1, urease; settings: read-out: IC50 (urease); Figure 1; ref Khan et al., 2024; cited from earlier work

T1 sequence (P07374 whole entry, looked up): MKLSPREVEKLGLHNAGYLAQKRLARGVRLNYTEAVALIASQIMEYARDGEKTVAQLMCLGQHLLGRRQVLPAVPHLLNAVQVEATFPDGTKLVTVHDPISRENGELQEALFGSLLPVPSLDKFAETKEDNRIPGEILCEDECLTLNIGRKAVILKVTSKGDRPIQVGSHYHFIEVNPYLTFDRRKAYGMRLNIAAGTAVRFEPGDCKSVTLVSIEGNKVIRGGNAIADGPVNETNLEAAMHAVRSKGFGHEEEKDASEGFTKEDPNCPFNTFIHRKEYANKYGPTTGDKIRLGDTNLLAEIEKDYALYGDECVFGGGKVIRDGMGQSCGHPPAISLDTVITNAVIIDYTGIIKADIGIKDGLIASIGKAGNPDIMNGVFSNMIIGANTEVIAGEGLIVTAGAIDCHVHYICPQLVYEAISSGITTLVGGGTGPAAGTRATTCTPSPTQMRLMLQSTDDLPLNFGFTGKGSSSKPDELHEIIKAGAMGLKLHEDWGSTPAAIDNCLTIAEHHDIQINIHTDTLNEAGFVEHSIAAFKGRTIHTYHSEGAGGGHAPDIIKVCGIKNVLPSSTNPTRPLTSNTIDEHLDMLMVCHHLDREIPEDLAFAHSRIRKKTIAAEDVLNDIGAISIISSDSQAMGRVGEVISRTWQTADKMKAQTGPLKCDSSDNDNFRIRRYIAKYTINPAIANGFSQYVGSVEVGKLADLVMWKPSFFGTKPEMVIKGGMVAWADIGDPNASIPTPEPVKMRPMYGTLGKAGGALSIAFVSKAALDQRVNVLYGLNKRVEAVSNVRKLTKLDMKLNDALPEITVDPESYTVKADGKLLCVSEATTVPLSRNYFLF

Structure (SMILES): O=C(Nc1ccc(Cl)cc1)c1ccc(CSC(=S)N2CCN(c3ncccc3[N+](=O)[O-])CC2)cc1 [Compound 7d, 4-((4-Chlorophenyl)carbamoyl)benzyl 4-(3-nitropyridin-2-yl)piperazine-1-carbodithioate]
- IC50 [1]: 43.11 ± 0.31 µM
- melting point: 147 to 148 °C

Structure (SMILES): O=C(Nc1ccc([N+](=O)[O-])cc1)c1ccc(CSC(=S)N2CCN(c3ncccc3[N+](=O)[O-])CC2)cc1 [Compound 7i, 4-((4-Nitrophenyl)carbamoyl)benzyl 4-(3-nitropyridin-2-yl)piperazine-1-carbodithioate]
- IC50 [1]: 10.5 ± 0.34 µM

Structure (SMILES): Cc1ccc(NC(=O)CSC(=S)N2CCN(c3ncccc3[N+](=O)[O-])CC2)cc1 [Compound 5l, 2-Oxo-2-(p-tolylamino)ethyl 4-(3-nitropyridin-2-yl)piperazine-1-carbodithioate]
- IC50 [1]: 10.6 ± 0.36 µM

Structure (SMILES): Cc1ccccc1NC(=O)CSC(=S)N1CCN(c2ncccc2[N+](=O)[O-])CC1 [Compound 5j, 2-Oxo-2-(o-tolylamino)ethyl 4-(3-nitropyridin-2-yl)piperazine-1-carbodithioate]
- IC50 [1]: 5.16 ± 2.68 µM
- type of inhibition against urease [2]: mixed type of inhibition

Structure (SMILES): Cc1cccc(NC(=O)CSC(=S)N2CCN(c3ncccc3[N+](=O)[O-])CC2)c1 [Compound 5k, 2-Oxo-2-(m-tolylamino)ethyl 4-(3-nitropyridin-2-yl)piperazine-1-carbodithioate]
- IC50 [1]: 18.3 ± 0.17 µM
- melting point: 101 to 103 °C

Structure (SMILES): O=C(CSC(=S)N1CCN(c2ncccc2[N+](=O)[O-])CC1)Nc1ccccc1 [Compound 5a, 2-Oxo-2-(phenylamino)ethyl 4-(3-nitropyridin-2-yl)piperazine-1-carbodithioate]
- IC50 [1]: 18.7 ± 0.52 µM
- melting point: 119 to 120 °C

Structure (SMILES): O=C(CSC(=S)N1CCN(c2ncccc2[N+](=O)[O-])CC1)Nc1ccccc1Cl [Compound 5b, 2-((2-Chlorophenyl)amino)-2-oxoethyl 4-(3-nitropyridin-2-yl)piperazine-1-carbodithioate]
- IC50 [1]: 41.03 ± 0.23 µM
- melting point: 114 to 116 °C

Structure (SMILES): O=C(Nc1ccccc1)c1ccc(CSC(=S)N2CCN(c3ncccc3[N+](=O)[O-])CC2)cc1 [Compound 7a, 4-(Phenylcarbamoyl)benzyl 4-(3-nitropyridin-2-yl)piperazine-1-carbodithioate]
- IC50 [1]: 11.7 ± 0.26 µM
- melting point: 142 to 143 °C

Structure (SMILES): COc1ccc(NC(=O)c2ccc(CSC(=S)N3CCN(c4ncccc4[N+](=O)[O-])CC3)cc2)cc1 [Compound 7n, 4-((4-Methoxyphenyl)carbamoyl)benzyl 4-(3-nitropyridin-2-yl)piperazine-1-carbodithioate]
- IC50 [1]: 24 ± 0.27 µM
- melting point: 187 to 189 °C

Structure (SMILES): O=C(CSC(=S)N1CCN(c2ncccc2[N+](=O)[O-])CC1)Nc1ccc([N+](=O)[O-])cc1 [Compound 5i, 2-((4-Nitrophenyl)amino)-2-oxoethyl 4-(3-nitropyridin-2-yl)piperazine-1-carbodithioate]
- IC50 [1]: 45.41 ± 0.23 µM
- melting point: 168 to 169 °C

Structure (SMILES): O=C(CSC(=S)N1CCN(c2ncccc2[N+](=O)[O-])CC1)Nc1ccc(Cl)cc1 [Compound 5d, 2-((4-Chlorophenyl)amino)-2-oxoethyl 4-(3-nitropyridin-2-yl)piperazine-1-carbodithioate]
- IC50 [1]: 55.69 ± 0.2 µM
- melting point: 143 to 144 °C

Structure (SMILES): O=C(CSC(=S)N1CCN(c2ncccc2[N+](=O)[O-])CC1)Nc1ccc(Br)cc1 [Compound 5f, 2-((4-Bromophenyl)amino)-2-oxoethyl 4-(3-nitropyridin-2-yl)piperazine-1-carbodithioate]
- IC50 [1]: 21.3 ± 0.7 µM
- melting point: 136 to 138 °C

Structure (SMILES): NC(N)=S [Thiourea, thiourea, reference compound]
- IC50 ([1]; indophenol method, urea substrate 100 mM, pH 8.0, triplicate, read-out: Urease inhibition: IC50 ± SEM): 23 ± 0.03 µM

Structure (SMILES): O=C(Nc1cccc([N+](=O)[O-])c1)c1ccc(CSC(=S)N2CCN(c3ncccc3[N+](=O)[O-])CC2)cc1 [Compound 7h, 4-((3-Nitrophenyl)carbamoyl)benzyl 4-(3-nitropyridin-2-yl)piperazine-1-carbodithioate]
- IC50 [1]: 47.94 ± 0.25 µM
- melting point: 165 to 166 °C

Structure (SMILES): O=C(Nc1ccccc1Cl)c1ccc(CSC(=S)N2CCN(c3ncccc3[N+](=O)[O-])CC2)cc1 [Compound 7b, 4-((2-Chlorophenyl)carbamoyl)benzyl 4-(3-nitropyridin-2-yl)piperazine-1-carbodithioate]
- IC50 [1]: 32.53 ± 0.31 µM
- melting point: 109 to 110 °C

Structure (SMILES): O=C(CSC(=S)N1CCN(c2ncccc2[N+](=O)[O-])CC1)Nc1ccccc1[N+](=O)[O-] [Compound 5g, 2-((2-Nitrophenyl)amino)-2-oxoethyl 4-(3-nitropyridin-2-yl)piperazine-1-carbodithioate]
- IC50 [1]: 16.84 ± 0.12 µM
- melting point: 149 to 151 °C

Structure (SMILES): O=C(Nc1cccc(Cl)c1)c1ccc(CSC(=S)N2CCN(c3ncccc3[N+](=O)[O-])CC2)cc1 [Compound 7c, 4-((3-Chlorophenyl)carbamoyl)benzyl 4-(3-nitropyridin-2-yl)piperazine-1-carbodithioate]
- IC50 [1]: 10.8 ± 0.52 µM
- melting point: 140 to 141 °C

Structure (SMILES): Cc1ccccc1NC(=O)c1ccc(CSC(=S)N2CCN(c3ncccc3[N+](=O)[O-])CC2)cc1 [Compound 7j, 4-(o-Tolylcarbamoyl)benzyl 4-(3-nitropyridin-2-yl)piperazine-1-carbodithioate]
- IC50 [1]: 12.3 ± 0.27 µM
- melting point: 113 to 115 °C

Structure (SMILES): O=C(Nc1ccccc1[N+](=O)[O-])c1ccc(CSC(=S)N2CCN(c3ncccc3[N+](=O)[O-])CC2)cc1 [Compound 7g, 4-((2-Nitrophenyl)carbamoyl)benzyl 4-(3-nitropyridin-2-yl)piperazine-1-carbodithioate]
- IC50 [1]: 56.89 ± 0.31 µM
- melting point: 133 to 134 °C

Structure (SMILES): Cc1ccc(NC(=O)c2ccc(CSC(=S)N3CCN(c4ncccc4[N+](=O)[O-])CC3)cc2)cc1 [Compound 7l, 4-(P-tolylcarbamoyl)benzyl 4-(3-nitropyridin-2-yl)piperazine-1-carbodithioate]
- IC50 [1]: 37.54 ± 0.26 µM
- melting point: 158 to 160 °C

Structure (SMILES): COc1ccccc1NC(=O)CSC(=S)N1CCN(c2ncccc2[N+](=O)[O-])CC1 [Compound 5m, 2-((2-Methoxyphenyl)amino)-2-oxoethyl 4-(3-nitropyridin-2-yl)piperazine-1-carbodithioate]
- IC50 [1]: 8.17 ± 0.37 µM

Structure (SMILES): O=C(Nc1cccc(Br)c1)c1ccc(CSC(=S)N2CCN(c3ncccc3[N+](=O)[O-])CC2)cc1 [Compound 7e, 4-((3-Bromophenyl)carbamoyl)benzyl 4-(3-nitropyridin-2-yl)piperazine-1-carbodithioate]
- IC50 [1]: 16.5 ± 0.28 µM
- melting point: 141 to 142 °C

Structure (SMILES): O=C(CSC(=S)N1CCN(c2ncccc2[N+](=O)[O-])CC1)Nc1cccc(Cl)c1 [Compound 5c, 2-((3-Chlorophenyl)amino)-2-oxoethyl 4-(3-nitropyridin-2-yl)piperazine-1-carbodithioate]
- IC50 [1]: 37.33 ± 0.19 µM
- melting point: 121 to 122 °C

Structure (SMILES): O=C(Nc1ccc(Br)cc1)c1ccc(CSC(=S)N2CCN(c3ncccc3[N+](=O)[O-])CC2)cc1 [Compound 7f, 4-((4-Bromophenyl)carbamoyl)benzyl 4-(3-nitropyridin-2-yl)piperazine-1-carbodithioate]
- IC50 [1]: 16.8 ± 0.29 µM
- melting point: 162 to 164 °C

Structure (SMILES): COc1ccc(NC(=O)CSC(=S)N2CCN(c3ncccc3[N+](=O)[O-])CC2)cc1 [Compound 5n, 2-((4-Methoxyphenyl)amino)-2-oxoethyl 4-(3-nitropyridin-2-yl)piperazine-1-carbodithioate]
- IC50 [1]: 17.8 ± 0.29 µM
- melting point: 151 to 153 °C

Structure (SMILES): O=C(CSC(=S)N1CCN(c2ncccc2[N+](=O)[O-])CC1)Nc1cccc([N+](=O)[O-])c1 [Compound 5h, 2-((3-Nitrophenyl)amino)-2-oxoethyl 4-(3-nitropyridin-2-yl)piperazine-1-carbodithioate]
- IC50 [1]: 27 ± 2.15 µM
- melting point: 174 to 175 °C

Structure (SMILES): CN(Cc1ccccc1)C(=S)SCc1ccccc1 [S-benzyl substituted carbodithioate]
- IC50 [3]: 0.75 ± 0.04 µM

Structure (SMILES): O=C(CSC(=S)N1CCN(c2ncccc2[N+](=O)[O-])CC1)Nc1cccc(Br)c1 [Compound 5e, 2-((3-Bromophenyl)amino)-2-oxoethyl 4-(3-nitropyridin-2-yl)piperazine-1-carbodithioate]
- IC50 [1]: 32.53 ± 0.2 µM
- melting point: 110 to 112 °C

Structure (SMILES): COc1ccccc1NC(=O)c1ccc(CSC(=S)N2CCN(c3ncccc3[N+](=O)[O-])CC2)cc1 [Compound 7m, 4-((2-Methoxyphenyl)carbamoyl)benzyl 4-(3-nitropyridin-2-yl)piperazine-1-carbodithioate]
- IC50 [1]: 18.7 ± 0.27 µM
- melting point: 166 to 167 °C

Structure (SMILES): Cc1cccc(NC(=O)c2ccc(CSC(=S)N3CCN(c4ncccc4[N+](=O)[O-])CC3)cc2)c1 [Compound 7k, 4-(m-Tolylcarbamoyl)benzyl 4-(3-nitropyridin-2-yl)piperazine-1-carbodithioate]
- IC50 [1]: 10.7 ± 0.26 µM
